The test system of series [1] is hepatic CYP450 enzyme system. As to conditions: cited from earlier work.
Series [2] can be described thus: Plasma pharmacokinetics of RO4929097 alone and with bevacizumab. Format: in vivo, human. Particulars: for AUC24: plasma, geometric mean; for AUC24 Δ% / Cmax Δ%: day 15 with bevacizumab vs day 1 alone.
In series [3] the test system is patients with recurrent malignant gliomas.

Several values for one entry are separate records, joined by “and”; a condition that tells them apart may be missing. Identical values can stand only once.

Consider “Bevacizumab: monoclonal antibody directed against vascular endothelial growth factor”, for which the “Substrate or modulator of hepatic CYP450 enzyme system” value in series [1] is “not a substrate or modulator”.
For `CC(C)(C(=O)NCC(F)(F)C(F)(F)F)C(=O)N[C@@H]1C(=O)Nc2ccccc2-c2ccccc21` [RO4929097], the AUC24 is 1,215 ng●h/mL in series [2] (5 mg oral, day 1, no concurrent bevacizumab); 1,212 ng●h/mL in series [2] (5 mg oral, day 15, concurrent bevacizumab); 2,385 ± 606 ng●h/mL and 2,385 ng●h/mL in series [2] (10 mg oral, day 1, no concurrent bevacizumab); 2,232 ± 781 ng●h/mL and 2,232 ng●h/mL in series [2] (20 mg oral, day 1, no concurrent bevacizumab); 2,555 ng●h/mL in series [2] (20 mg oral, day 15, concurrent bevacizumab). For the same molecule, the “AUC24 Δ%” value in series [2] (5 mg) is recorded as −0.2%; in series [2] (10 mg), −1.5%; in series [2] (20 mg), 14.5%. For the same molecule, the “Cmax Δ%” value was 7.0% in series [2] (10 mg) and 1.9% in series [2] (20 mg). The “Dose proportionality of mean Cmax” value in series [2] (escalation of the dose from 5 to 20 mg) is on record as “increased less than proportionately”. For the same molecule, the “Definitive maximum tolerated dose” value in series [3] (in combination with bevacizumab, drug production halted) is given as “not identified”. For the same molecule, in series [3] (orally 3 days on/4 days off each week in combination with bevacizumab), the “Recommended phase II dose” value was found to be 10 mg/kg.

Values taken from PMC5571739 (Journal of neuro-oncology, 2016).
